For two compounds, IC50 results are on record in patent publication US20240182492A1, “AZAHETEROARYL COMPOUND, PREPARATION METHOD THEREFOR, AND APPLICATION THEREOF” (SHANGHAI BLUERAY BIOPHARMA CO., LTD., priority 2021, published 2024).

For test [1], the system named is B-cell non-Hodgkin lymphoma cells KARPAS-422. Description: Cell proliferation analysis, KARPAS-422, 13 days, CellTiter-Glo. In kind it is cell-based, Human. Conditions: Karpas-422, 13 days. As to the method:
Example 55: Cell Proliferation Analysis
Human B-cell non-Hodgkin lymphoma cells KARPAS-422 S were cultured in culture flasks using standard cell culture conditions. The culture medium contains 15% fetal bovine serum (FBS, Invitrogen, product number 10099-141), 1% penicillin/streptomycin solution (P/S) RPMI-1640 (Invitrogen, product number 11875), and the culture flask is placed and cultured in a sterile incubator at 37° C., 95% relative humidity, and 5% CO2. In order to detect the effect of PRC2 inhibitors on cell proliferation, cells in the exponential growth phase were seeded into 96-well plates (Corning, product number 3904) at a density of 1×10^4 cells/well, and 100 μL of medium was added to each well. Subsequently, the compounds disclosed herein at different concentrations were added to the wells seeded with cells (9 concentration gradients were set for each compound, and the highest detection concentration was 10 μM, 3-fold gradient dilution), and 2 repeats in parallel were set for each treatment concentration. The final concentration of DMSO is 0.5%. Then the number of surviving cells was counted with Vi-CELL (Beckman Coulter) every 3-4 days. The cells counted each time were seeded into a new 96-well plate at the same density (1×10^4 cells/well). The wells were supplemented with fresh medium to 100 μL, and different concentrations of the compound were added at the same time. The cells were cultured until the 13th day, on which 100 μL of CellTiter-Glo (CellTiter-GloCellTiter-GloCellTiter-GloCTG) (Promega, Product No. G7573) was added to each well. The plate was placed for 10-20 minutes in the dark at room temperature, and Molecular Devices and SpectraMax i3X were used to read the luminous signal. The data were fitted to a dose-response curve using GraphPad prisim5 and the IC50 values of the tested compounds were obtained.
Background: Cellular ATP, detected with luciferase, serves as a proxy for viable cell number.

For test [2], the system named is trimethylation level of histone H3K27 in G401 cells. Description: ELISA (H3K27 trimethylation) analysis in G401 cells. In kind it is cell-based. Conditions: H3K27me3 normalized by H3. How it is done:
Example 54: ELISA (H3K27 Trimethylation) Analysis
Representative compounds of the present disclosure are diluted in DMSO with 3-fold gradient, and 10 concentration gradients are tested per compound. The maximum testing concentration is 10 μM. The compound is diluted 200-fold into G401 cells cultured in 96-well plates (the final concentration of DMSO is 0.5%). After the cells are cultured for 72 hours, the trimethylation level of histone H3K27 is detected by ELISA method.
Histone extraction: compound-treated cells in a 96-well plate are washed 3 times with 1×PBS (10×PBS buffer (80 g NaCl (Sigma, Product No. S3014), 2 g KCl (Sigma, Product No. 60128), 14.4 g Na2HAPO4 (Sigma, Product No. S5136) and 2.4 g KH2PO4 (Sigma, Product No. P9791) are added to 1 L water, pH to 7.4), and 100 μL of 0.4N HCl is added to each well. The 96-well plate is placed at 4° C. and gently shaken for 2 hours to lyse the cells. The cell lysate is then neutralized with 80 μL of neutralization buffer (0.5M disodium hydrogen phosphate, pH 12.5, 2.5 mM DTT; 1% cocktail (Sigma, Product No. P8340) (mixing the cell lysate and neutralization buffer thoroughly).
ELISA detection method: the cell lysates are transferred in parallel to two 384-well assay plates (PerkinElmer, OptiPlate-384HB, Product No. 6007290). One plate is used to detect the trimethylation level of H3K27, and the other plate is used to measure the level of H3. PBS is adjusted to a final volume of 50 μL/well. The wells are coated overnight at 4° C. On the next day, the solution in the wells was discarded. TBST buffer (1 xTBS (10×TBS: 24.2 g Tris (Sigma, Product No. T6066) and 80 g NaCl (Sigma, Product No. S3014) are added to 1 L water, and pH is adjusted to 7.6 with HCl) and 0.1% Tween-20) is used to wash it 5 times, and the water is dried on absorbent papers. 70 μL of blocking buffer (TBST, 5% BSA) is added to the coated reaction wells, and the wells are incubated for 1 hour at room temperature. The blocking buffer was discarded, and the primary antibody is added (30 μL/well). The required primary antibodies are diluted with blocking buffer, and the dilution ratios were as follows: anti-H3K27me3 antibody (Cell Signaling Technology, Product No. 9733), 1:2000 dilution; anti-H3 antibody (Cell Signaling Technology, Product No. 4499), 1:10000 dilution. After adding the primary antibody, the wells are incubated at room temperature for 1 hour. After washing with TBST for 5 times, the water are dried. The secondary antibody (30 μL/well) is added to each reaction well, and the wells are incubated at room temperature for 1 hour. Secondary antibody (anti-rabbit antibody (Jackson ImmunoResearch, Product No. 111-035-003)) is used after dilution 2000-fold in blocking buffer. After 1 hour, it is washed with TBST and dried. 30 μL of ECL substrate (Pierce, Product No. 34080) is added to each well and centrifuged for 30 seconds at 2000 rpm. Signal of each sample is detected using Molecular Devices, SpectraMax. Data processing: H3K27 methylation readings are first normalized by H3 signal. 0.500 DM8)-treated sample is used as a control, and the inhibition percentage of the compound is calculated. The data is fitted to a dose-response curve using the GraphPad prisim5 program, obtaining the IC50 values of the test compounds.
A general note: In an ELISA, binding on a coated surface is turned into a signal by an enzyme label.

Test [3] concerns the target T1, EED protein (full-length, His6 tag) binding to H3K27me3 polypeptide (Homo sapiens, UniProt O75530).
T1 construct: The full-length EED protein (441 amino acids) with His6 tag
Briefly: AlphaScreen evaluation of blocking the binding of EED to H3K27Me3. The conditions noted are these: EED / biotinylated H3K27me3 peptide competition. As to the method:
Example 53: Evaluation of the Effect of the Compound in Blocking the Binding of EED to H3K27Me3 by AlphaScreen (a-Screening) Method
First, compound solutions with different concentration gradients are prepared. Compound powder is dissolved in DMSO to form mother liquor. 1.5 μL of the compound mother liquor is taken to 198.5 μL reaction buffer (25 mM HEPES (pH 8.0), 50 mM NaCl, 0.015% Tween 20, 0.5% BSA) and the solution is mix uniformly, and then 3-fold gradient dilution is performed with the above buffer containing 0.75% DMSO. 9 different test concentrations are set for the same compound. 5 μL of compounds with different concentration gradients was taken to ProxiPlate-384 Plus, White detection plate (PerkinElmer, 6008280), and 2 parallel replicates are set for each concentration gradient.
Next, a binding blocking reaction is performed. The full-length EED protein (441 amino acids) with His6 tag is diluted to 60 nM with the above buffer, and the biotinylated polypeptide fragment H3K27me3 (amino acids 19-33) (Biotinylated-H3K27me3) is diluted to 75 nM with the same buffer. 5 μL of 75 nM peptide fragments and 5 μL of 60 nM protein are transferred to the testing wells containing the compound respectively. The testing plate is sealed with a film, and is incubated for 30 minutes at room temperature.
Finally, AlphaScreen method is used for detection. Before use, nickel chelate acceptor beads and streptavidin donor beads (Perkin Elmer, product number 6760619M) are mixed into the above reaction buffer at a ratio of 1:1, and then 5 μL of the above pre-mixed testing solution is added to each testing well. The final concentration of the donor beads and acceptor beads is 5 μg/mL. The testing plate is covered with tin foil and placed at room temperature in the dark for 1 hour. Signals are read using an AlphaScreen detector on a Spectra max i3. The AlphaScreen signal is normalized according to the readings obtained from the positive control (maximum signal control) and negative control (minimum signal control) to give the inhibition rate of different concentrations of the compound. After that, non-linear regression analysis was performed with GraphPad Prism 5, and dose-response equation Y=Bottom+(Top−Bottom)/(1+10^((Log IC50−X)*HillSlope)) is used to make an inhibition curve, obtaining the IC50 value of each compound. […]
In general terms: In Alpha technology, singlet oxygen from a donor bead excites a nearby acceptor bead.

T1 sequence (O75530 whole entry): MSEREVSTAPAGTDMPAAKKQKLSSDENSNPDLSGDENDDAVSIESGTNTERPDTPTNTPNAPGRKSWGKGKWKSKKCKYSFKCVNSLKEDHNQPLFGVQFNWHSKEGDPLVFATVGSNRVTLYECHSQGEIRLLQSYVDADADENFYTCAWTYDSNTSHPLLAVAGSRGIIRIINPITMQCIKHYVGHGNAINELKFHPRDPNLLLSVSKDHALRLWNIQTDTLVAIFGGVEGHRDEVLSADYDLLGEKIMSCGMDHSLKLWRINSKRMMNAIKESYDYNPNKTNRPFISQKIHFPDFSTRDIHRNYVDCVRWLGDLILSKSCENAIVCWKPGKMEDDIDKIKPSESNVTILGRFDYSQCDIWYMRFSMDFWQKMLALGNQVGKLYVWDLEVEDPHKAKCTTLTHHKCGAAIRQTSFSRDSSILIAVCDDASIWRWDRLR

Consider `Cc1nc2c(-c3cnc(NCc4c(F)ccc5c4CCO5)n4cnnc34)cnc(C(C)(C)O)n2n1` [2-(8-(5-(((5-fluoro-2,3-dihydrobenzofuran-4-yl)methyl)amino)-[1,2,4]triazolo[4,3-c]pyrimidin-8-yl)-2-methyl-[1,2,4]triazolo[1,5-c]pyrimidin-5-yl)propan-2-ol], for which the IC50 (as a rule, the concentration that inhibits the measured activity by half) was 0.0065 µM in test [1] (Homo sapiens, KARPAS-422, 312 h); 0.0006 µM in test [2] (Homo sapiens, G-401, 72 h); 0.0084 µM in test [3].
In the case of `CCC(O)c1ccc(-c2cnc(NCc3c(F)ccc4c3CCO4)n3cnnc23)c2ncnn12` (single isomer, unassigned) [Compound e], the IC50 is 0.002 µM in test [1], 0.0004 µM in test [2] (72 hours) and 0.0064 µM in test [3].
